From patent US20240239861A1, “GLUCAGON-RECEPTOR SELECTIVE POLYPEPTIDES AND METHODS OF USE THEREOF” (i2O Therapeutics, Inc., priority 2016, published 2024)
*1 amine or outer side, *2 acyl side, *3 side chain or, on linkers, in order; H or OH if unused. Where a SMILES comes first, the peptide text is derived from it. Side-chain parts run from the residue outwards. [ ]: non-standard residue; d: D form. The star is where a group is joined. C18 diacid = O=C(O)CCCCCCCCCCCCCCCCC(=O)*; γGlu = O=C(O)[C@H](CCC(=O)[*:2])N[*:1]; AEEA = NCCOCCOCC(=O)O; Aib = CC(C)(N)C(=O)O

Key:
[1] = target: human GCGR (Homo sapiens, UniProt P47871); assay: Peptide-receptor mediated cAMP accumulation (LANCE Ultra cAMP) in CHO-K1 cells transfected with human GCGR; assay type: cell-based; details: read-out: GluR pEC50 (converted)
Sequence of human GCGR (P47871 26-477): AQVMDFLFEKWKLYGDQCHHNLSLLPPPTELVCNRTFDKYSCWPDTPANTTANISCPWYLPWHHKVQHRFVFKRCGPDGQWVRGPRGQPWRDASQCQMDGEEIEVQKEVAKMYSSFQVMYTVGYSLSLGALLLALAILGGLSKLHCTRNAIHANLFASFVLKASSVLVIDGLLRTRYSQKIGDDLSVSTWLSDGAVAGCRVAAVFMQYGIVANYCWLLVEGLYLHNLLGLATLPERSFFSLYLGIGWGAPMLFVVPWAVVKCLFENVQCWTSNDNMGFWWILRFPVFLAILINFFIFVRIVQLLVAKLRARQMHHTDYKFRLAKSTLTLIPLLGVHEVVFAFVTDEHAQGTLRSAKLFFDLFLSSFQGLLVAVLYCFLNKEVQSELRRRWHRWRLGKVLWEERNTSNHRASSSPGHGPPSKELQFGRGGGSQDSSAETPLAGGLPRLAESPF

[2] = target: human GLP-1R (Homo sapiens, UniProt P43220); assay: Peptide-receptor mediated cAMP accumulation (LANCE Ultra cAMP) in CHO-K1 cells transfected with human GLP-1R; assay type: cell-based; details: Table 7; GLP-1R; read-out: GLP-1R pEC50 (converted)
Sequence of human GLP-1R (P43220 24-463): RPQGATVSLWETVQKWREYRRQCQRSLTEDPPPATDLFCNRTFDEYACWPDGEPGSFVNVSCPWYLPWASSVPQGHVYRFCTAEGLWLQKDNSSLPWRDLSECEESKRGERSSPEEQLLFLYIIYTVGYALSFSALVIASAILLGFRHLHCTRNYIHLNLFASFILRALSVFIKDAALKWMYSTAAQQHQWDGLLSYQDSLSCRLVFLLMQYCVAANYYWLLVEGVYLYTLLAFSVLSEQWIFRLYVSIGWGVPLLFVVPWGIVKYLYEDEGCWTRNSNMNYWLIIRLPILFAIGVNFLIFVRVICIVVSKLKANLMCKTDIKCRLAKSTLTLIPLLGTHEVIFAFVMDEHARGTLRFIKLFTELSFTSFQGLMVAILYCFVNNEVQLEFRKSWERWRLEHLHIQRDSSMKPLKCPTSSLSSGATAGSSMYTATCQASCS

Row | Compound | EC50 [1] | EC50 [2]
1 | CC(C)C[C@H](NC(=O)[C@H](Cc1ccc(O)cc1)NC(=O)[C@H](CCCCN)NC(=O)[C@H](CO)NC(=O)[C@H](Cc1ccc(O)cc1)NC(=O)[C@H](CC(=O)O)NC(=O)[C@H](CO)NC(=O)[C@@H](NC(=O)[C@H](Cc1ccccc1)NC(=O)[C@@H](NC(=O)CNC(=O)[C@H](Cc1c[nH]cn1)NC(=O)[C@H](CO)NC(=O)[C@@H](N)Cc1ccc(O)cc1)[C@@H](C)O)[C@@H](C)O)C(=O)N[C@@H](CC(=O)O)C(=O)NC(C)(C)C(=O)N[C@@H](CCCCN)C(=O)N[C@@H](Cc1ccc(O)cc1)C(=O)N[C@@H](C)C(=O)N[C@@H](CCC(N)=O)C(=O)N[C@@H](CCC(=O)O)C(=O)N[C@@H](Cc1ccccc1)C(=O)N[C@H](C(=O)NC(C)(C)C(=O)N[C@@H](Cc1c[nH]c2ccccc12)C(=O)N[C@@H](CC(C)C)C(=O)N[C@@H](CCC(=O)O)C(=O)N[C@@H](CC(=O)O)C(=O)N[C@@H](CCC(=O)O)C(=O)N1CCC[C@H]1C(=O)N[C@@H](CO)C(=O)N[C@@H](CO)C(=O)N[C@@H](CCCCNC(=O)COCCOCCNC(=O)COCCOCCNC(=O)CC[C@H](NC(=O)CCCCCCCCCCCCCCCCC(=O)O)C(=O)O)C(=O)N[C@@H](C)C(=O)N1CCC[C@H]1C(=O)N1CCC[C@H]1C(=O)N1CCC[C@H]1C(=O)N[C@@H](CO)C(=O)O)C(C)C [Compound B5] | 0.251 nM | > 1000 nM
2 | CC(C)C[C@H](NC(=O)[C@H](Cc1c[nH]c2ccccc12)NC(=O)[C@H](CCCCNC(=O)COCCOCCNC(=O)COCCOCCNC(=O)CC[C@H](NC(=O)CCCCCCCCCCCCCCCCC(=O)O)C(=O)O)NC(=O)[C@@H](NC(=O)[C@H](Cc1ccccc1)NC(=O)[C@H](CCC(=O)O)NC(=O)[C@H](CCC(N)=O)NC(=O)[C@H](C)NC(=O)[C@H](Cc1ccc(O)cc1)NC(=O)[C@H](CCCCN)NC(=O)C(C)(C)NC(=O)[C@H](CC(=O)O)NC(=O)[C@H](CC(C)C)NC(=O)[C@H](Cc1ccc(O)cc1)NC(=O)[C@H](CCCCN)NC(=O)[C@H](CO)NC(=O)[C@H](Cc1ccc(O)cc1)NC(=O)[C@H](CC(=O)O)NC(=O)[C@H](CO)NC(=O)[C@@H](NC(=O)[C@H](Cc1ccccc1)NC(=O)[C@@H](NC(=O)CNC(=O)[C@H](Cc1c[nH]cn1)NC(=O)[C@H](CO)NC(=O)[C@@H](N)Cc1ccc(O)cc1)[C@@H](C)O)[C@@H](C)O)C(C)C)C(=O)N[C@@H](CCC(=O)O)C(=O)N[C@@H](CC(=O)O)C(=O)N[C@@H](CCC(=O)O)C(=O)N1CCC[C@H]1C(=O)N[C@@H](CO)C(=O)N[C@@H](CO)C(=O)NCC(=O)N[C@@H](C)C(=O)N1CCC[C@H]1C(=O)N1CCC[C@H]1C(=O)N1CCC[C@H]1C(=O)N[C@@H](CO)C(=O)O [Compound B6] | 0.0794 nM | > 1000 nM
3 | CC(C)C[C@H](NC(=O)[C@H](Cc1ccc(O)cc1)NC(=O)[C@H](CCCCN)NC(=O)[C@H](CO)NC(=O)[C@H](Cc1ccc(O)cc1)NC(=O)[C@H](CC(=O)O)NC(=O)[C@H](CO)NC(=O)[C@@H](NC(=O)[C@H](Cc1ccccc1)NC(=O)[C@@H](NC(=O)CNC(=O)[C@H](Cc1c[nH]cn1)NC(=O)[C@H](CO)NC(=O)[C@@H](N)Cc1ccc(O)cc1)[C@@H](C)O)[C@@H](C)O)C(=O)N[C@@H](CC(=O)O)C(=O)N[C@@H](CCCCNC(=O)COCCOCCNC(=O)COCCOCCNC(=O)CC[C@H](NC(=O)CCCCCCCCCCCCCCCCC(=O)O)C(=O)O)C(=O)N[C@@H](CCCCN)C(=O)N[C@@H](Cc1ccc(O)cc1)C(=O)N[C@@H](C)C(=O)N[C@@H](CCC(N)=O)C(=O)N[C@@H](CCC(=O)O)C(=O)N[C@@H](Cc1ccccc1)C(=O)N[C@H](C(=O)NC(C)(C)C(=O)N[C@@H](Cc1c[nH]c2ccccc12)C(=O)N[C@@H](CC(C)C)C(=O)N[C@@H](CCC(=O)O)C(=O)N[C@@H](CC(=O)O)C(=O)N[C@@H](CCC(=O)O)C(=O)N1CCC[C@H]1C(=O)N[C@@H](CO)C(=O)N[C@@H](CO)C(=O)NCC(=O)N[C@@H](C)C(=O)N1CCC[C@H]1C(=O)N1CCC[C@H]1C(=O)N1CCC[C@H]1C(=O)N[C@@H](CO)C(=O)O)C(C)C [Compound B7] | 2.51 nM | > 1000 nM
4 | CC(C)C[C@H](NC(=O)[C@H](Cc1ccc(O)cc1)NC(=O)[C@H](CCCCN)NC(=O)[C@H](CO)NC(=O)[C@H](CCCCNC(=O)COCCOCCNC(=O)COCCOCCNC(=O)CC[C@H](NC(=O)CCCCCCCCCCCCCCCCC(=O)O)C(=O)O)NC(=O)[C@H](CC(=O)O)NC(=O)[C@H](CO)NC(=O)[C@@H](NC(=O)[C@H](Cc1ccccc1)NC(=O)[C@@H](NC(=O)CNC(=O)[C@H](Cc1c[nH]cn1)NC(=O)[C@H](CO)NC(=O)[C@@H](N)Cc1ccc(O)cc1)[C@@H](C)O)[C@@H](C)O)C(=O)N[C@@H](CC(=O)O)C(=O)NC(C)(C)C(=O)N[C@@H](CCCCN)C(=O)N[C@@H](Cc1ccc(O)cc1)C(=O)N[C@@H](C)C(=O)N[C@@H](CCC(N)=O)C(=O)N[C@@H](CCC(=O)O)C(=O)N[C@@H](Cc1ccccc1)C(=O)N[C@H](C(=O)NC(C)(C)C(=O)N[C@@H](Cc1c[nH]c2ccccc12)C(=O)N[C@@H](CC(C)C)C(=O)N[C@@H](CCC(=O)O)C(=O)N[C@@H](CC(=O)O)C(=O)N[C@@H](CCC(=O)O)C(=O)N1CCC[C@H]1C(=O)N[C@@H](CO)C(=O)N[C@@H](CO)C(=O)NCC(=O)N[C@@H](C)C(=O)N1CCC[C@H]1C(=O)N1CCC[C@H]1C(=O)N1CCC[C@H]1C(=O)N[C@@H](CO)C(=O)O)C(C)C [Compound B8] (H-YSHGTFTSDK([AEEA-AEEA-γGlu-C18 diacid])SKYLD[Aib]KYAQEFV[Aib]WLEDEPSSGAPPPS-OH) | 0.0251 nM | > 1000 nM
5 | CCCCCCCCCCCCCCCC(=O)N[C@@H](CCC(=O)NCCCC[C@H](NC(=O)[C@@H](NC(=O)[C@H](Cc1ccccc1)NC(=O)[C@H](CCC(=O)O)NC(=O)[C@H](CCC(N)=O)NC(=O)[C@H](C)NC(=O)[C@H](CO)NC(=O)[C@H](CCCCN)NC(=O)C(C)(C)NC(=O)[C@H](CC(=O)O)NC(=O)[C@H](CC(C)C)NC(=O)[C@H](Cc1ccc(O)cc1)NC(=O)[C@H](CCCCN)NC(=O)[C@H](CO)NC(=O)[C@H](Cc1ccc(O)cc1)NC(=O)[C@H](CC(=O)O)NC(=O)[C@H](CO)NC(=O)[C@@H](NC(=O)[C@H](Cc1ccccc1)NC(=O)[C@@H](NC(=O)CNC(=O)[C@H](Cc1c[nH]cn1)NC(=O)[C@H](CO)NC(=O)[C@@H](N)Cc1ccc(O)cc1)[C@@H](C)O)[C@@H](C)O)C(C)C)C(=O)N[C@@H](Cc1c[nH]c2ccccc12)C(=O)N[C@@H](CC(C)C)C(=O)N[C@@H](CCC(=O)O)C(=O)N[C@@H](CC(=O)O)C(=O)N[C@@H](CCC(=O)O)C(=O)N1CCC[C@H]1C(=O)N[C@@H](CO)C(=O)N[C@@H](CO)C(=O)NCC(=O)N[C@@H](C)C(=O)N1CCC[C@H]1C(=O)N1CCC[C@H]1C(=O)N1CCC[C@H]1C(=O)N[C@@H](CO)C(=O)O)C(=O)O [Compound B10] | 0.126 nM | > 1000 nM
